Results on 9 compounds are retold here after patent publication US8614339B2, “Dimeric derivatives of artemisinin and application in anti-cancer therapy” (Pierre Fabre Medicament, priority 2008, dated 2013).

The term IC50 denotes the concentration that inhibits the measured activity by half.

The test system of test [1] is Namalwa cell line (lymphoma). Nature of the test: Cytotoxic activity: inhibition of cell proliferation, ATPLite luminescence of residual ATP after 72 hours. The test is classed as cell-based. The note with it: Namalwa human lymphoma cell line, 72 hours of incubation, read-out: IC50 (expressed in nM) Namalwa. The protocol:
(§1) The cytotoxic activity of the compounds of the invention was evaluated by measuring inhibition of cell proliferation of human tumour cell lines, such as the A549 cell line (lung) and the Namalwa cell line (lymphoma). This activity is expressed by IC50, the concentration of the product tested able to inhibit cell proliferation by 50%. The method employed is measurement by luminescence of residual ATP after 72 hours of incubation using the ATPLite® kit sold by Perkin Elmer, as described in the following publication: “Measurement of cytotoxicity by ATP-based luminescence assay in primary cell cultures and cell lines.” I. A. Cree, P. E. Andreotti, Toxicology in Vitro, 11, 553-6, (1997).
(§2) As an example, the cytotoxic properties of a few of the compounds of the invention evaluated on A549 and Namalwa cell lines are presented in the following table: […]
Background: Cellular ATP, detected with luciferase, serves as a proxy for viable cell number.

The next test deals with A549 cell line (lung). Described as above. The test is classed as cell-based. As to conditions: A549 human lung tumour cell line, 72 hours of incubation, read-out: IC50 (expressed in nM) A549. The protocol: as §1, §2

As for `C[C@@H]1CC[C@H]2C(COCCCO[C@@]3(C(F)(F)F)O[C@@H]4OC5(C)CCC6[C@H](C)CC[C@@H]([C@H]3C)[C@]64OO5)=C(C(F)(F)F)O[C@@H]3OC4(C)CCC1[C@]32OO4` (stereo partly drawn) [Compound 1], the half-maximal inhibitory concentration (IC50) in test [1] was 6.8 nM; with A549 cell line (lung), 5.2 nM.
Regarding `C[C@@H]1CC[C@H]2C(COCCO[C@@]3(C(F)(F)F)O[C@@H]4OC5(C)CCC6[C@H](C)CC[C@@H]([C@H]3C)[C@]64OO5)=C(C(F)(F)F)O[C@@H]3OC4(C)CCC1[C@]32OO4` (stereo partly drawn) [Compound 2], the IC50 turned out to be 27 nM in test [1] and 25 nM in the test with A549 cell line (lung).
With `C[C@@H]1CC[C@H]2C(COCCCCO[C@@]3(C(F)(F)F)O[C@@H]4OC5(C)CCC6[C@H](C)CC[C@@H]([C@H]3C)[C@]64OO5)=C(C(F)(F)F)O[C@@H]3OC4(C)CCC1[C@]32OO4` (stereo partly drawn) [Compound 3], the IC50 was 5.5 nM in test [1] and 6.7 nM in the test with A549 cell line (lung).
Turning to `C[C@@H]1CC[C@H]2C(COCc3cccc(CO[C@@]4(C(F)(F)F)O[C@@H]5OC6(C)CCC7[C@H](C)CC[C@@H]([C@H]4C)[C@]75OO6)n3)=C(C(F)(F)F)O[C@@H]3OC4(C)CCC1[C@]32OO4` (stereo partly drawn) [Compound 4], the half-maximal inhibitory concentration (IC50) amounted to 19 nM in test [1] and 27 nM in the test on A549 cell line (lung).
For `C[C@@H]1CC[C@H]2C(Cn3nncc3CO[C@@]3(C(F)(F)F)O[C@@H]4OC5(C)CCC6[C@H](C)CC[C@@H]([C@H]3C)[C@]64OO5)=C(C(F)(F)F)O[C@@H]3OC4(C)CCC1[C@]32OO4` (stereo partly drawn) [Compound 7], the IC50 in test [1] stood at 30 nM; with A549 cell line (lung), 45 nM.
The corresponding values for `C[C@@H]1CC[C@H]2C(COC/C=C/CO[C@@]3(C(F)(F)F)O[C@@H]4OC5(C)CCC6[C@H](C)CC[C@@H]([C@H]3C)[C@]64OO5)=C(C(F)(F)F)O[C@@H]3O[C@@]4(C)CCC1[C@]32OO4` (stereo partly drawn) [Compound 8] are 13 nM and 27 nM.
Turning to `C[C@@H]1CC[C@H]2C(CNCCO[C@@]3(C(F)(F)F)O[C@@H]4OC5(C)CCC6[C@H](C)CC[C@@H]([C@H]3C)[C@]64OO5)=C(C(F)(F)F)O[C@@H]3O[C@@]4(C)CCC1[C@]32OO4` (stereo partly drawn) [Compound 10], the IC50 in test [1] was determined as 19 nM; in the test on A549 cell line (lung), 27 nM.
On to `C[C@@H]1CC[C@H]2[C@@H](C)[C@](OCCCCCOCC3=C(C(F)(F)F)O[C@@H]4O[C@@]5(C)CC[C@H]6[C@H](C)CC[C@@H]3[C@@]46OO5)(C(F)(F)F)O[C@@H]3O[C@@]4(C)CC[C@@H]1[C@]32OO4` [Compound 16], for which the 50% inhibitory concentration (IC50) was 42 nM in test [1] and 19 nM with A549 cell line (lung).
Take `C[C@@H]1CC[C@H]2[C@@H](C)[C@](OCCCCCN(C)CC3=C(C(F)(F)F)O[C@@H]4O[C@@]5(C)CC[C@H]6[C@H](C)CC[C@@H]3[C@@]46OO5)(C(F)(F)F)O[C@@H]3O[C@@]4(C)CC[C@@H]1[C@]32OO4` [Compound 22]: the IC50 amounted to 83 nM in test [1] and 46 nM in the test with A549 cell line (lung).
